“And” between values parts separate entries of the source, which are not always exact repeats. Equal entries are not always repeated. Structures can show the parent of a compound that is named as a salt.
Columns and labels:
Staphylococcus aureus [1] = assay: MIC / MBC determination
Aspergillus niger [2] = assay: MIC determination
[3] = Serum lipid profile in high-fat diet mice; assay type: in vivo; settings: HFD C57BL/6 mice, 4 mg kg^−1 body weight, 3 months, mean ± SD
Experimental: (§1) This study employed 8‐week‐old male C57BL/6 mice of matched weight (around 20–25 g) from an inbred “genetically identical” strain. The mice were purchased from the National Research Center's Animal House. Then, they were subdivided into five groups, each group containing eight mice; four groups were treated with CETZ.2HCl (antihistamine drug) and its metal complexes, whereas one group was left untreated and classified as a control group. Animals were housed in modular plastic veterinary cages at air‐conditioned room, under pathogen‐free conditions. Mice were fed HFD, which consisted of carbs 42.0%, fat 23.0%, protein 17.0%, fiber 3.0%, minerals 5.0%, and moisture 10.0% for 3 months, together with administration of either CETZ.2HCl or its metal complexes (4 mg kg ^−1 body weight) in DMF [37]. Experiments were performed in accordance with the regulations of the Animal Care and Use Committee of the College of Veterinary Medicine, Mansoura University (MU‐ACUC), Egypt; MU‐ACUC (PHARM.R.24.02.30), complied with “Guide for the Care and Use of Laboratory Animals” (National Research Council publication 8th ed., USA, 2011).
(§2) Specimens of blood were gathered from the retro‐orbital sinus, under halothane (1.5 percent v/v halothane in oxygen) anesthesia via inhalation. The collected blood was allowed to clot, by centrifugation at 1600 rpm for 20 min, to obtain serum. Isolated sera were maintained at −80°C until tests of liver function in addition to lipid profiles were performed. For estimation of L. lipase activity, fluorometric L. lipase activity assay kit was utilized following the manufacturer's protocol (Cat. No. STA‐610, Cell BIOLABS INC., San Diego, USA). Serum T. chol. LDL, HDL, TG, ALT (alanine aminotransferase), AST (aspartate aminotransferase), and ALP (alkaline phosphatase) were examined with Roche kits using COBAS Integra 400 and COBAS Integra‐400 plus (Roche Diagnostics Limited, Switzerland).

Bacillus subtilis [4] = assay: MIC / MBC determination
Escherichia coli [5] = assay: Agar diffusion, inhibition zone (ZOI) and activity index; settings: for ZOI: 10^−3 M in DMF, 5 mm holes, 20 h at 37°C
Aspergillus terreus [6] = assay: as above; settings: for ZOI: 10^−3 M in DMF, 5 mm holes, 7 days at 30°C; for AI: ZOI of compound / ZOI of standard (colitrimazole) × 100
Bacillus subtilis [7] = assay: as above; settings: for ZOI: 10^−3 M in DMF, 5 mm holes, 20 h at 37°C
Aspergillus niger [8] = assay: as above; settings: for ZOI: 10^−3 M in DMF, 5 mm holes, 7 days at 30°C
Aspergillus terreus [9] = assay: MIC determination
Salmonella typhi [10] = assay: Agar diffusion, inhibition zone (ZOI) and activity index; assay type: cell-based; settings: for ZOI: 10^−3 M in DMF, 5 mm holes, 20 h at 37°C
[11] = Serum liver function enzymes in high-fat diet mice; assay type: in vivo; settings: HFD C57BL/6 mice, 4 mg kg^−1 body weight, 3 months, mean ± SD
Experimental: as §1, §2

Escherichia coli [12] = assay: MIC / MBC determination
[13] = system: lipoprotein lipase (L. lipase); assay: Serum L. lipase activity in high-fat diet mice (fluorometric kit); assay type: in vivo; settings: HFD C57BL/6 mice; for L. lipase (serum enzyme activity): 4 mg kg^−1 body weight in DMF, 3 months, mean ± SD; for mean L. lipase activity: rounded, 4 mg kg^−1 body weight
Experimental: as §1, §2

Salmonella typhi [14] = assay: MIC / MBC determination; assay type: cell-based
Staphylococcus aureus [15] = assay: Agar diffusion, inhibition zone (ZOI) and activity index; settings: for ZOI / AI: Staphylococcus aureus; for ZOI: 10^−3 M in DMF, 5 mm holes, 20 h at 37°C; for AI: ZOI of compound / ZOI of standard (ampicillin) × 100
[16] = Escherichia coli, ZOI of compound / ZOI of standard (gentamicin) × 100
[17] = Bacillus subtilis, ZOI of compound / ZOI of standard (ampicillin) × 100
[18] = Salmonella typhi, ZOI of compound / ZOI of standard (gentamicin) × 100

For O=C(O)COCCN1CCN(C(c2ccccc2)c2ccc(Cl)cc2)CC1 (racemic) [CETZ.2HCl, (RS)‐2‐[2‐[4‐[(4‐chlorophenyl)phenylmethyl]piperazine‐L‐yl]‐ethoxy]acetic acid, dihydrochloride, reference compound], the MBC (Staphylococcus aureus [1]) was 0.049 µg/mL and 0.049 ± 0.01 µg/mL, the MIC (Staphylococcus aureus [1]) was 0.025 µg/mL and 0.025 ± 0.02 µg/mL and the MIC (Aspergillus niger [2]) was 0.025 µg/mL and 0.025 ± 0.01 µg/mL. The HDL [3] was 85.25 ± 6.23 mg/dL, the LDL [3] was 93.25 ± 8.15 mg/dL and the “Total Chol.” value [3] was 230.38 mg/dL. It also gave a Trig [3] of 80.5 ± 10.18 mg/dL, an MIC (Bacillus subtilis [4]) of 0.05 µg/mL and a ZOI (Escherichia coli [5]; Escherichia coli) of 8.5 ±0.50 mm. The AI (Escherichia coli [5]; [16]) was 43.6%, the ZOI (Aspergillus terreus [6]) was 10.3 ±0.27 mm and the AI (Aspergillus terreus [6]) was 58.9%. The ZOI (Bacillus subtilis [7]; Bacillus subtilis) was 12.1 ± 0.15 mm, the AI (Bacillus subtilis [7]; [17]) was 42.6% and the ZOI (Aspergillus niger [8]; Aspergillus niger) was 12.5 ±0.36 mm. The MIC (Aspergillus terreus [9]) was 0.025 µg/mL and 0.025 ± 0.01 µg/mL, the ZOI (Salmonella typhi [10]; Salmonella typhi) was 7.7 ±0.58 mm and the AI (Salmonella typhi [10]; [18]) was 37.2%. For the same compound, the ALP [11] was 90.5 ± 16.79 U L^−1, the ALT [11] was 245.63 ± 43.99 U L^−1 and the AST [11] was 345.5 ± 57.73 U L^−1. The MBC (Escherichia coli [12]) was 0.091 µg/mL, the MIC (Escherichia coli [12]) was 0.075 ± 0.01 µg/mL and the “L. lipase (serum enzyme activity)” value [13] was 104.88± 26.5 U/L and 104.88 U/L. For the same compound, the “mean L. lipase activity” value [13] was 104.9 U L^−1, the MBC (Salmonella typhi [14]; Salmonella enterica, TYPHI) was 0.037 ± 0.01 µg/mL and the ZOI (Staphylococcus aureus [15]) was 9.4 ± 0.02 mm. It also gave an AI (Staphylococcus aureus [15]) of 41.4%.
For O.O.O=C([O-])COCCN1CCN(C(c2ccccc2)c2ccc(Cl)cc2)CC1.O=[N+]([O-])[O-].[Cu+2].c1cnc2c(c1)ccc1cccnc12 (centres unmarked) [complex (1), [Cu(CETZ)(Phen)(H2O)2(NO3)]], the MBC (Staphylococcus aureus [1]) was 0.086 µg/mL and 0.086 ± 0.004 µg/mL, the MIC (Staphylococcus aureus [1]) was 0.075 µg/mL and 0.075 ± 0.03 µg/mL and the MIC (Aspergillus niger [2]) was 0.050 µg/mL and 0.050 ± 0.02 µg/mL. The HDL [3] was 80.75 ± 8.26 mg/dL, the LDL [3] was 60.5 ± 5.78 mg/dL and the “Total Chol.” value [3] was 138.88 ± 10.92 mg/dL. The Trig [3] was 77.25 ± 9.3 mg/dL, the MIC (Bacillus subtilis [4]) was 0.050 ± 0.007 µg/mL and the ZOI (Escherichia coli [5]; Escherichia coli) was 32.5 ^+ ^3 ±0.30 mm. For the same compound, the AI (Escherichia coli [5]; [16]) was 166.6%, the AI (Escherichia coli [5]; Table 9, Escherichia coli, this work) was 113.3 and the “Escherichia coli (inhibition zone)” value (Escherichia coli [5]; Table 9, this work) was 32.5 ^+ ^3 ± 0.30. The ZOI (Aspergillus terreus [6]) was 10.5^NS ±1.06 mm, the AI (Aspergillus terreus [6]) was 60.0% and the ZOI (Bacillus subtilis [7]; Bacillus subtilis) was 23.3 ^+ ^2 ± 0.66 mm. For the same compound, the AI (Bacillus subtilis [7]; [17]) was 82.04%, the AI (Bacillus subtilis [7]; Table 9, Bacillus subtillis, this work) was 55.3 and the “Bacillus subtillis (inhibition zone)” value (Bacillus subtilis [7]; Table 9, this work) was 23.3 ^+ ^2 ± 0.66. The ZOI (Aspergillus niger [8]; Aspergillus niger) was 13.1^NS ±0.38 mm, the AI (Aspergillus niger [8]; Aspergillus niger, ZOI of compound / ZOI of standard (colitrimazole) × 100) was 66.16% and the AI (Aspergillus niger [8]; Table 9, Aspergillus niger, this work) was 88.89. The “Aspergillus niger (inhibition zone)” value (Aspergillus niger [8]; Table 9, this work) was 13.1^NS ± 0.38, the MIC (Aspergillus terreus [9]) was 0.075 µg/mL and 0.075 ± 0.005 µg/mL and the ZOI (Salmonella typhi [10]; Salmonella typhi) was 30.0 ^+ ^3 ±0.10 mm. The AI (Salmonella typhi [10]; [18]) was 144.9%, the AI (Salmonella typhi [10]; Table 9, Salmonella typhi, this work) was 59.9 and the “Salmonella typhi (inhibition zone)” value (Salmonella typhi [10]; Table 9, this work) was 30.0 ^+ ^3 ± 0.10. For the same compound, the ALP [11] was 88 ± 12.64 U L^−1, the ALT [11] was 228.63 ± 50.57 U L^−1 and the AST [11] was 274.63 ± 36.40^NS U L^−1. For the same compound, the MBC (Escherichia coli [12]) was 0.15 0.02 µg mL^−1, the MIC (Escherichia coli [12]) was 0.1 ± 0.006 µg/mL and the “L. lipase (serum enzyme activity)” value [13] was 127.88 U/L. For the same compound, the “L. lipase (serum enzyme activity)” value ([13]; listed as Cu-CETZ Complex) was 127.88±11.72 U/L, the “mean L. lipase activity” value [13] was 127.9 U L^−1 and the MBC (Salmonella typhi [14]; Salmonella typhi) was 0.081 ± 0.01 µg/mL. For the same compound, the MIC (Salmonella typhi [14]; Salmonella typhi) was 0.075 µg/mL and 0.075 ± 0.006 µg/mL, the ZOI (Staphylococcus aureus [15]) was 17.3 ^+ ^2 ±0.33 mm and the AI (Staphylococcus aureus [15]) was 76.2%. The “Staphylococcus aureus (inhibition zone)” value (Staphylococcus aureus [15]; Table 9, this work) was 17.3 ^+ ^2 ± 0.33.
With CC(=O)[O-].O.O.O=C([O-])COCCN1CCN(C(c2ccccc2)c2ccc(Cl)cc2)CC1.[Cd+2].c1cnc2c(c1)ccc1cccnc12 (centres unmarked) [complex (3), [Cd(CETZ)(Phen)(H2O)2(CH3COO)]] the HDL [3] was 44.63 ± 12.92 mg/dL, the LDL [3] was 89.25 ± 9.45 mg/dL and the “Total Chol.” value [3] was 283.75 mg/dL. The Trig [3] was 188.75 mg/dL, the MIC (Bacillus subtilis [4]) was 0.075 ± 0.006 µg/mL and the ZOI (Escherichia coli [5]; Escherichia coli) was 28.5 ^+ ^2 ±0.83 mm. The AI (Escherichia coli [5]; [16]) was 146.1%, the ZOI (Aspergillus terreus [6]) was 14.7 ^+ ^1 ±0.55 mm and the AI (Aspergillus terreus [6]) was 84.0%. For the same compound, the ZOI (Bacillus subtilis [7]; Bacillus subtilis) was 32.0 ^+ ^3 ±0.68 mm, the AI (Bacillus subtilis [7]; [17]) was 112.68% and the MIC (Aspergillus terreus [9]) was 0.100 µg/mL and 0.1 ± 0.01 µg/mL. The ZOI (Salmonella typhi [10]; Salmonella typhi) was 19.5 ^+ ^2 ±0.85 mm, the AI (Salmonella typhi [10]; [18]) was 94.2% and the ALP [11] was 123.63 ± 11.45 U L^−1. The ALT [11] was 283.75 ± 23.49 U L^−1, the AST [11] was 374.88 ± 36.33 U L^−1 and the MBC (Escherichia coli [12]) was 0.23 ± 0.053 µg/mL. The MIC (Escherichia coli [12]) was 0.1 ± 0.02 µg/mL, the “L. lipase (serum enzyme activity)” value [13] was 52.38 U/L and the “L. lipase (serum enzyme activity)” value ([13]; listed as Cd-CETZ Complex) was 52.38±9.6 U/L. The “mean L. lipase activity” value [13] was 52.4 U L^−1, the MBC (Salmonella typhi [14]; Salmonella typhi) was 0.066 ± 0.014 µg/mL and the MIC (Salmonella typhi [14]; Salmonella typhi) was 0.050 µg/mL and 0.050 ± 0.01 µg/mL.

Reference: publication PMC12081029, “Structural, Spectroscopic, and Docking Analysis of N,O‐Donor Ligand Metal Complex Nanoparticles With Hypolipidemic Effects via Lipoprotein Lipase Activation in High‐Fat Diet Mice” (Chemistry & Biodiversity, 2024)
